Reference: patent US20130165368A1, “ANTIMICROBIAL COMPOUNDS” (priority 2010, published 2013)
In brackets after ≈: the same amount, converted by molar mass. Where two headings read alike, the source gives them in different places.

What was measured:
Format in all cases: cell-based
MRSA EMRSA 16 00998/95 = assay: MIC agar dilution, MRSA strain 47; conditions: Staphylococcus aureus
Description: (§1) Molar equivalent concentrations were used to allow comparison between compounds of differing molecular mass. Due to weighing difficulties, any compound in solid form was melted in a water bath prior to dilution. To make ten-times strength concentrations, which takes into account agar dilution, 0.0352 mmol of each compound was weighed into plastic universal bottles and 4 mL of sterile distilled water (SDW) was added. To produce a homogenous emulsion the universals were vortexed; once achieved the emulsions were serial diluted by adding 2 mL to 2 mL of SDW.
(§2) For every 100 mL of Isosensitest agar (IST) (CM0471; Oxoid, Basingstoke, England), 3.1 g of the IST powder was added to 100 mL SDW (as per manufacturer's instructions) and sterilised for 15 minutes at 121° C. Once sterilised, the molten agar was cooled to 50° C. in a water-bath. Subsequently 4.8 g of CCEY powder (BC2160; Bioconnections, Wetherby, England), also known as Brazier's medium, was added to 100 mL SDW for every 100 mL of agar needed. This was then sterilised for 15 minutes at 121° C. Once sterilised the molten agar was cooled to 50° C. in a water-bath and 4 mL of egg-yolk emulsion (S2073; TCS Biosciences Ltd, Buckingham, United Kingdom) and 1 mL of lysed defibrinated horse blood (HB035; TCS Biosciences Ltd, Buckingham, United Kingdom) were also added for every 100 mL needed. Horse blood lysis is achieved by dilution to half concentration with SDW; when fully lysed the mixture will turn dark red in colour.
(§3) 18 mL agar was added to each universal and then poured into sterile Petri dishes. This step creates a 1/10 dilution resulting in agar plates of the required strength. Control plates for each set of strains were created by adding 18 mL of agar to 2 mL of SDW.
(§4) Suspensions of each bacterial species were prepared with a density equal to that of a 0.5 McFarland standard using a densitometer. All suspensions were made using sterile distilled water and fresh 18-20 hour cultures. As a 0.5 McFarland standard contains 1.5×10^8 CFU/mL and the multipoint inoculators applies 1 μL spots of liquid, each bacterial suspension was diluted 1/15 (20 μL suspension to 280 μL sterile distilled water).
(§5) Bacterial suspensions were prepared from fresh 18-24 hour cultures as previously described. 1 μL of each strain was inoculated onto all 100 agar plates containing a different chemical concentration and the 2 control plates. This was done using a multipoint inoculator which inoculates 20 strains per plate. All plates were incubated for 22 hours at 37° C. in aerobic conditions.
(§6) Each plate was examined for bacterial growth after 22 and 48 hours, with each being incubated in between examinations. A positive result was recorded as growth of ≧10 colonies. A negative result was recorded as growth of <10 colonies as this is equivalent to 99.9% inhibition. The lowest concentration of chemical that inhibited growth was recorded as the MIC. The results are recorded in Table IV below, where the numbers are quoted in mmol/L.
(§7) Given the positive performance of the ethoxylates of lauryl alcohol in reducing the MIC for a number of the micro-organisms tested, further MIC testing of Laureth-1 [C12E1] through to Laureth-8 [C12E8] was conducted on each of the following: • 10 strains of vancomycin-resistant enterococci (VRE)—listed in Table V below; and • 20 strains of methicillin-resistant Staphylococcus aureus (MRSA)—listed in Table VI.
(§8) The alkanol, alkanol derivatives, agar plates, and inocula were all prepared in the same way as described above.
(§9) The plates were examined in the same manner as described above and the results are recorded in Table VII below, where the numbers are quoted in mmol/L.

MRSA FRA 95035 = assay: MIC agar dilution, MRSA strain 37; conditions: Staphylococcus aureus
Description: as §1, §2, §3, §4, §5, §6, §7, §8, §9

Steptococcus pyogenes = assay: MIC agar dilution, micro-organism 11 (8306); conditions: Steptococcus pyogenes 8306, read-out: MIC
Method in brief: (§10)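 Twofold dilutions of compound emulsions in water were set in Isosensitest agar with Brazier's CCEY medium, egg yolk and lysed horse blood. Spots of 1 µL from 0.5 McFarland suspensions diluted 1/15 were incubated aerobically at 37 °C and read at 22 and 48 h. MIC (mmol/L) was the lowest concentration giving <10 colonies.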

MRSA EMRSA 15 21268/98 = assay: MIC agar dilution, MRSA strain 40; conditions: Staphylococcus aureus
Description: as §1, §2, §3, §4, §5, §6, §7, §8, §9

[1] = test system: Staphylococcus aureus (MRSA); assay: MIC agar dilution, micro-organism 12 (11939); conditions: Staphylococcus aureus, MRSA, Staphylococcus aureus (MRSA) 11939, read-out: MIC
Method in brief: as §10

Providencia rettgeri = assay: MIC agar dilution, micro-organism 3 (7475); conditions: Providencia rettgeri 7475, read-out: MIC
Method in brief: as §10

[2] = test system: MRSA GER 1966/97 (Hanover IIIc); assay: MIC agar dilution, MRSA strain 36; conditions: Staphylococcus aureus
Description: as §1, §2, §3, §4, §5, §6, §7, §8, §9

MRSA EMRSA 16 18200/95 = assay: MIC agar dilution, MRSA strain 48; conditions: Staphylococcus aureus
Description: as §1, §2, §3, §4, §5, §6, §7, §8, §9

Candida glabrata = assay: MIC agar dilution, micro-organism 20 (3943); conditions: Nakaseomyces glabratus, Candida glabrata 3943, read-out: MIC
Method in brief: as §10

MRSA BEL 97597 = assay: MIC agar dilution, MRSA strain 33; conditions: Staphylococcus aureus
Description: as §1, §2, §3, §4, §5, §6, §7, §8, §9

MRSA EMRSA 16 03732/95 = assay: MIC agar dilution, MRSA strain 45; conditions: Staphylococcus aureus
Description: as §1, §2, §3, §4, §5, §6, §7, §8, §9

[3] = test system: Staphylococcus epidermidis; assay: MIC agar dilution, micro-organism 14 (11047); conditions: Staphylococcus epidermidis 11047, read-out: MIC
Method in brief: as §10

[4] = test system: Enterococcus faecium (VRE) MB 305; assay: MIC agar dilution, VRE strain 25
Description: as §1, §2, §3, §4, §5, §6, §7, §8, §9

Compound	MIC (MRSA EMRSA 16 00998/95; 22 hrs)	MIC (MRSA EMRSA 16 00998/95; 48 hrs)	MIC (MRSA FRA 95035; 22 hrs)	MIC (MRSA FRA 95035; 48 hrs)	MIC (Steptococcus pyogenes; 22 h, 22 hrs)	MIC (Steptococcus pyogenes; 48 h, 48 hrs)	MIC (MRSA EMRSA 15 21268/98; 22 hrs)	MIC (MRSA EMRSA 15 21268/98; 48 hrs)	MIC ([1]; 22 h, 22 hrs)	MIC ([1]; 48 h, 48 hrs)	MIC (Providencia rettgeri; 22 hrs)	MIC (Providencia rettgeri; 48 hrs)	MIC ([2]; 22 hrs)	MIC ([2]; 48 hrs)	MIC (MRSA EMRSA 16 18200/95; 22 hrs)	MIC (MRSA EMRSA 16 18200/95; 48 hrs)	MIC (Candida glabrata; 22 h, 22 hrs)	MIC (Candida glabrata; 48 h, 48 hrs)	MIC (MRSA BEL 97597; 22 hrs)	MIC (MRSA BEL 97597; 48 hrs)	other results
CCCCCCCCCCCCOCCOCCOCCO [L3, Triethylene Glycol Monododecyl Ether]	55 µM (≈ 17.5 µg/mL)	55 µM (≈ 17.5 µg/mL)	55 µM (≈ 17.5 µg/mL)	55 µM (≈ 17.5 µg/mL)	≤ 50 µM	≤ 50 µM	110 µM (≈ 35 µg/mL)	110 µM (≈ 35 µg/mL)	110 µM (≈ 35 µg/mL)	110 µM (≈ 35 µg/mL)	> 880 µM	> 880 µM	55 µM (≈ 17.5 µg/mL)	55 µM (≈ 17.5 µg/mL)	110 µM (≈ 35 µg/mL)	110 µM (≈ 35 µg/mL)	110 µM (≈ 35 µg/mL)	110 µM (≈ 35 µg/mL)	55 µM (≈ 17.5 µg/mL)	55 µM (≈ 17.5 µg/mL)	MIC (MRSA EMRSA 16 03732/95; 22 hrs): 110 µM (≈ 35 µg/mL); MIC (MRSA EMRSA 16 03732/95; 48 hrs): 110 µM (≈ 35 µg/mL); MIC ([3]; 22 hrs): ≤ 50 µM; MIC ([3]; 48 hrs): ≤ 50 µM; MIC ([4]; 22 hrs): 440 µM (≈ 140 µg/mL); MIC ([4]; 48 hrs): 440 µM (≈ 140 µg/mL)
CCCCCCCCCCCCOCCOCCOCCOCCO [L4, Tetraethylene Glycol Monododecyl Ether]	55 µM (≈ 19.9 µg/mL)	55 µM (≈ 19.9 µg/mL)	55 µM (≈ 19.9 µg/mL)	55 µM (≈ 19.9 µg/mL)	≤ 50 µM	≤ 50 µM	55 µM (≈ 19.9 µg/mL)	55 µM (≈ 19.9 µg/mL)	110 µM (≈ 39.9 µg/mL)	110 µM (≈ 39.9 µg/mL)	> 880 µM	> 880 µM	55 µM (≈ 19.9 µg/mL)	55 µM (≈ 19.9 µg/mL)	55 µM (≈ 19.9 µg/mL)	55 µM (≈ 19.9 µg/mL)	110 µM (≈ 39.9 µg/mL)	110 µM (≈ 39.9 µg/mL)	55 µM (≈ 19.9 µg/mL)	55 µM (≈ 19.9 µg/mL)	MIC (MRSA EMRSA 16 03732/95; 22 hrs): 110 µM (≈ 39.9 µg/mL); MIC (MRSA EMRSA 16 03732/95; 48 hrs): 110 µM (≈ 39.9 µg/mL); MIC ([3]; 22 hrs): 110 µM (≈ 39.9 µg/mL); MIC ([3]; 48 hrs): 110 µM (≈ 39.9 µg/mL); MIC ([4]; 22 hrs): 110 µM (≈ 39.9 µg/mL); MIC ([4]; 48 hrs): 110 µM (≈ 39.9 µg/mL)
CCCCCCCCCCCCOCCOCCOCCOCCOCCO [L5, Pentaethylene Glycol Monododecyl Ether]	110 µM (≈ 44.7 µg/mL)	110 µM (≈ 44.7 µg/mL)	110 µM (≈ 44.7 µg/mL)	110 µM (≈ 44.7 µg/mL)	≤ 50 µM	≤ 50 µM	110 µM (≈ 44.7 µg/mL)	110 µM (≈ 44.7 µg/mL)	110 µM (≈ 44.7 µg/mL)	220 µM (≈ 89.5 µg/mL)	> 880 µM	> 880 µM	110 µM (≈ 44.7 µg/mL)	110 µM (≈ 44.7 µg/mL)	110 µM (≈ 44.7 µg/mL)	110 µM (≈ 44.7 µg/mL)	110 µM (≈ 44.7 µg/mL)	220 µM (≈ 89.5 µg/mL)	110 µM (≈ 44.7 µg/mL)	110 µM (≈ 44.7 µg/mL)	MIC (MRSA EMRSA 16 03732/95; 22 hrs): 110 µM (≈ 44.7 µg/mL); MIC (MRSA EMRSA 16 03732/95; 48 hrs): 110 µM (≈ 44.7 µg/mL); MIC ([3]; 22 hrs): 110 µM (≈ 44.7 µg/mL); MIC ([3]; 48 hrs): 110 µM (≈ 44.7 µg/mL); MIC ([4]; 22 hrs): 110 µM (≈ 44.7 µg/mL); MIC ([4]; 48 hrs): 110 µM (≈ 44.7 µg/mL)
CCCCCCCCCCCCOCCOCCOCCOCCOCCOCCO [L6, Hexaethylene Glycol Monododecyl Ether]	220 µM (≈ 99.1 µg/mL)	440 µM (≈ 198 µg/mL)	220 µM (≈ 99.1 µg/mL)	440 µM (≈ 198 µg/mL)	≤ 50 µM	≤ 50 µM	110 µM (≈ 49.6 µg/mL)	110 µM (≈ 49.6 µg/mL)	110 µM (≈ 49.6 µg/mL)	110 µM (≈ 49.6 µg/mL)	> 880 µM	> 880 µM	110 µM (≈ 49.6 µg/mL)	110 µM (≈ 49.6 µg/mL)	110 µM (≈ 49.6 µg/mL)	220 µM (≈ 99.1 µg/mL)	220 µM (≈ 99.1 µg/mL)	220 µM (≈ 99.1 µg/mL)	110 µM (≈ 49.6 µg/mL)	110 µM (≈ 49.6 µg/mL)	MIC (MRSA EMRSA 16 03732/95; 22 hrs): 220 µM (≈ 99.1 µg/mL); MIC (MRSA EMRSA 16 03732/95; 48 hrs): 220 µM (≈ 99.1 µg/mL); MIC ([3]; 22 hrs): 110 µM (≈ 49.6 µg/mL); MIC ([3]; 48 hrs): 110 µM (≈ 49.6 µg/mL); MIC ([4]; 22 hrs): 220 µM (≈ 99.1 µg/mL); MIC ([4]; 48 hrs): 220 µM (≈ 99.1 µg/mL)
